# In PMC5087326 (Biochemical and biophysical research communications, 2016):
# Assays:
# LXRβ = biological target: T1, LXRβ (Homo sapiens, UniProt P55055); assay: LXRE-driven luciferase cotransfection assay in HEK293 cells; type: cell-based
# T1 sequence (P55055 1-460): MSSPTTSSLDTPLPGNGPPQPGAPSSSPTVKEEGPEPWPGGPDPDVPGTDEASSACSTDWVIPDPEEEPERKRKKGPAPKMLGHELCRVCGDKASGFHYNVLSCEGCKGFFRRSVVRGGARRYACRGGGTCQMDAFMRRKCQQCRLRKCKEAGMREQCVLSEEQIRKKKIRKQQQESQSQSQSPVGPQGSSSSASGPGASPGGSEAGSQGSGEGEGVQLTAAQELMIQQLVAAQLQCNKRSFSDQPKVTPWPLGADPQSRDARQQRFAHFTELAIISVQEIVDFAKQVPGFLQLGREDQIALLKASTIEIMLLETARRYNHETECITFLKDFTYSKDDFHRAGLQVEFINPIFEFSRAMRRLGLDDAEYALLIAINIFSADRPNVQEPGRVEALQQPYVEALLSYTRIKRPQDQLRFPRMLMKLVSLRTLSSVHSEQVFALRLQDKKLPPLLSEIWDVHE
# LXRα = biological target: T2, LXRα (Homo sapiens, UniProt Q13133); assay: Luminex coregulator peptide recruitment with LXRα LBD at […]; type: cell-based
# T2 sequence (Q13133 209-447 limits assumed): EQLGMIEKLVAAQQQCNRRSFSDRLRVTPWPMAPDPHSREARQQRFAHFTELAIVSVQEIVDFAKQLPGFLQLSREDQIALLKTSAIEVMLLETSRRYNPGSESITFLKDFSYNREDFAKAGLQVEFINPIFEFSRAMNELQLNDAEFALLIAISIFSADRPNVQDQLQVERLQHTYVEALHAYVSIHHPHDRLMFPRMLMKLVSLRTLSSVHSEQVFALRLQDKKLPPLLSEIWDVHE
smiles,measurement,setting,value
Cc1cc(C)c(S(=O)(=O)N(Cc2ccc(-c3cccc(S(C)(=O)=O)c3)cc2)Cc2ccc(C(F)(F)F)o2)c(C)c1 [GSK2033],IC50,LXRβ,9 nM
same,IC50,LXRα,17 nM
